Measurements reported in publication PMC4805251, “Novel Antimicrobial Peptides EeCentrocins 1, 2 and EeStrongylocin 2 from the Edible Sea Urchin Echinus esculentus Have 6-Br-Trp Post-Translational Modifications” (PLoS ONE, 2016).
“And” between values parts separate entries of the source, which are not always exact repeats. Equal entries are not always repeated. Where two headings read alike, the source gives them in different places. Ends that are not written are not given here.

Experiments:
Assay type in all cases: cell-based
human red blood cells = test: Haemolytic activity assay; conditions: human red blood cells in PBS, 1 h at 37°C, absorbance at 550 nm, 0.05% Triton X-100 = 100%, duplicates
Procedure: Synthesised peptide analogues of EeCentrocin 1 and 2 were screened for eukaryotic cell-toxicity with a haemolytic activity assay using human red blood cells as described previously. The assay was performed on 96-well U-shaped microtiter plates (Nagle Nunc) with 50 μl peptide sample, 40 μl phosphate-buffered saline (PBS) and 10 μl red blood cells. The final peptide concentrations ranged from 100 to 0.1 μM in two-fold serial dilutions. After one hour of incubation at 37°C in a shaker, the plate was centrifuged at 200 g for 5 min and the supernatants (60 μl) were carefully transferred to a new flat-bottomed polycarbonate microtiter plate (Nagle Nunc) and absorbance at 550 nm was measured on a Synergy H1 multimode reader (BioTek, VT, USA). Cell suspension added 0.05% Triton X-100 (Sigma-Aldrich, MO, USA) in PBS served as positive (100% haemolysis) control and cell suspension added PBS served as negative (0% haemolysis) control. The percent haemolysis was calculated using the formula [(Asample-Abaseline)/(Atriton-Abaseline)]×100. The experiment was performed in duplicates.

[1] = system: Candida albicans (ATCC 10231)
How it was run: (§1)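 Broth microdilution in potato dextrose broth with 4 × 10^5 spores/ml inoculum; peptides in water tested in two-fold dilutions from 100 to 0.1 μM. MIC taken as lowest concentration with no visible growth; triplicates, natural peptides run once.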

Rhodotorula sp. = system: Rhodotorula sp.
How it was run: as §1

[2] = potato dextrose broth, 24 h at room temperature, visual, no visible fungal growth, value of Table 2, triplicates

WGHKLRSSWNKVKHAVKKGAGYASGACRVLGH [EeCentrocin 2 HC]
% haemolysis (human red blood cells; 25.0 μM): 11.7%
% haemolysis (human red blood cells; 50.0 μM): 18.9%
% haemolysis (human red blood cells; 100 μM): 56.3% and 56.4%
MIC raw data C. albicans ([1]; parallel 1 of three): 50 µM
MIC raw data C. albicans ([1]; parallel 2 of three): 50 µM
MIC raw data C. albicans ([1]; parallel 3 of three): 25 µM
MIC C. albicans [1, 2]: 50 µM
MIC raw data Rhodotorula sp. (Rhodotorula sp.; parallel 1 of three): 3.13 µM
MIC raw data Rhodotorula sp. (Rhodotorula sp.; parallel 2 of three): 3.13 µM
MIC raw data Rhodotorula sp. (Rhodotorula sp.; parallel 3 of three): 3.13 µM
MIC Rhodotorula sp. (Rhodotorula sp.; [2]): 3.13 µM
